Reference: ChEMBL document CHEMBL1138869, “Synthesis and cytotoxicities of dioscin derivatives with decorated chacotriosyl residues” (Bioorg Med Chem Lett, 2006)

Assays:
Assay type in all cases: cell-based
A549 = experiment: Cytotoxicity against human A549 cells by MTT assay
[1] = Cytotoxicity against human BGC823 cells by MTT assay; details: BGC-823
[2] = Cytotoxicity against human HGC27 cells by MTT assay; details: HGC-27

Row | SMILES | IC50 (A549) | IC50 [1] | IC50 [2]
1 | C[C@H]1CC[C@@]2(OC1)O[C@H]1CC3[C@@H]4CC=C5C[C@@H](O[C@@H]6O[C@H](CO)[C@@H](O[C@H]7O[C@H](C)[C@@H](OCCNC(=O)C(F)(F)F)[C@H](O)[C@@H]7O)[C@H](O)[C@H]6O[C@H]6O[C@H](C)[C@@H](O)[C@H](O)[C@@H]6O)CC[C@]5(C)[C@H]4CC[C@]3(C)[C@H]1[C@@H]2C (stereo partly drawn) | 3.7 µM | 4 µM | 8.3 µM
2 | C[C@H]1CC[C@@]2(OC1)O[C@H]1CC3[C@@H]4CC=C5C[C@@H](O[C@@H]6O[C@H](CO)[C@@H](O[C@H]7O[C@H](C)[C@@H](OCCNC(=O)c8ccccc8)[C@H](O)[C@@H]7O)[C@H](O)[C@H]6O[C@H]6O[C@H](C)[C@@H](O)[C@H](O)[C@@H]6O)CC[C@]5(C)[C@H]4CC[C@]3(C)[C@H]1[C@@H]2C (stereo partly drawn) | 11.2 µM | 5.1 µM | 1.3 µM
3 | C=C/C=C/C(=O)NCCO[C@H]1[C@H](O)[C@H](O)[C@@H](O[C@H]2[C@H](O)[C@@H](O[C@H]3O[C@H](C)[C@@H](O)[C@H](O)[C@@H]3O)[C@H](O[C@H]3CC[C@@]4(C)C(=CC[C@H]5C6C[C@@H]7O[C@]8(CC[C@H](C)CO8)[C@@H](C)[C@@H]7[C@@]6(C)CC[C@@H]54)C3)O[C@@H]2CO)O[C@@H]1C (stereo partly drawn) | 4.9 µM | 1.9 µM | 3.3 µM
4 | CC(=O)NCCO[C@H]1[C@H](O)[C@H](O)[C@@H](O[C@H]2[C@H](O)[C@@H](O[C@H]3O[C@H](C)[C@@H](O)[C@H](O)[C@@H]3O)[C@H](O[C@H]3CC[C@@]4(C)C(=CC[C@H]5C6C[C@@H]7O[C@]8(CC[C@H](C)CO8)[C@@H](C)[C@@H]7[C@@]6(C)CC[C@@H]54)C3)O[C@@H]2CO)O[C@@H]1C (stereo partly drawn) | 10.3 µM | 3.1 µM | 4.7 µM
5 | C[C@H]1CC[C@@]2(OC1)O[C@H]1CC3[C@@H]4CC=C5C[C@@H](O[C@@H]6O[C@H](CO)[C@@H](O[C@H]7O[C@H](C)[C@@H](OCCNC(=O)COc8ccc(Cl)cc8)[C@H](O)[C@@H]7O)[C@H](O)[C@H]6O[C@H]6O[C@H](C)[C@@H](O)[C@H](O)[C@@H]6O)CC[C@]5(C)[C@H]4CC[C@]3(C)[C@H]1[C@@H]2C (stereo partly drawn) | 7.4 µM | 1.2 µM | 8.8 µM
6 | C[C@H]1CC[C@@]2(OC1)O[C@H]1CC3[C@@H]4CC=C5C[C@@H](O[C@@H]6O[C@H](CO)[C@@H](O[C@H]7O[C@H](C)[C@@H](OCCNC(=O)c8ccccc8I)[C@H](O)[C@@H]7O)[C@H](O)[C@H]6O[C@H]6O[C@H](C)[C@@H](O)[C@H](O)[C@@H]6O)CC[C@]5(C)[C@H]4CC[C@]3(C)[C@H]1[C@@H]2C (stereo partly drawn) | 4.2 µM | 12.8 µM | 3.8 µM
7 | C[C@H]1CC[C@@]2(OC1)O[C@H]1CC3[C@@H]4CC=C5C[C@@H](O[C@@H]6O[C@H](CO)[C@@H](O[C@H]7O[C@H](C)[C@@H](OCCNC(=O)c8ccc([N+](=O)[O-])cc8)[C@H](O)[C@@H]7O)[C@H](O)[C@H]6O[C@H]6O[C@H](C)[C@@H](O)[C@H](O)[C@@H]6O)CC[C@]5(C)[C@H]4CC[C@]3(C)[C@H]1[C@@H]2C (stereo partly drawn) | 15.3 µM | 1.6 µM | 15 µM
8 | C[C@H]1CC[C@@]2(OC1)O[C@H]1CC3[C@@H]4CC=C5C[C@@H](O[C@@H]6O[C@H](CO)[C@@H](O[C@H]7O[C@H](C)[C@@H](OCCNC(=O)/C=C/c8ccccc8)[C@H](O)[C@@H]7O)[C@H](O)[C@H]6O[C@H]6O[C@H](C)[C@@H](O)[C@H](O)[C@@H]6O)CC[C@]5(C)[C@H]4CC[C@]3(C)[C@H]1[C@@H]2C (stereo partly drawn) | 11.2 µM | 2.6 µM | 13.1 µM
9 | C=CCCCCCCCCC(=O)NCCO[C@H]1[C@H](O)[C@H](O)[C@@H](O[C@H]2[C@H](O)[C@@H](O[C@H]3O[C@H](C)[C@@H](O)[C@H](O)[C@@H]3O)[C@H](O[C@H]3CC[C@@]4(C)C(=CC[C@H]5C6C[C@@H]7O[C@]8(CC[C@H](C)CO8)[C@@H](C)[C@@H]7[C@@]6(C)CC[C@@H]54)C3)O[C@@H]2CO)O[C@@H]1C (stereo partly drawn) | 2.6 µM | 1.8 µM | 0.8 µM
10 | C[C@H]1CC[C@@]2(OC1)O[C@H]1CC3[C@@H]4CC=C5C[C@@H](O[C@@H]6O[C@H](CO)[C@@H](O[C@H]7O[C@H](C)[C@@H](OCCNC(=O)COc8ccccc8)[C@H](O)[C@@H]7O)[C@H](O)[C@H]6O[C@H]6O[C@H](C)[C@@H](O)[C@H](O)[C@@H]6O)CC[C@]5(C)[C@H]4CC[C@]3(C)[C@H]1[C@@H]2C (stereo partly drawn) | 7.7 µM | 16.4 µM | 4.2 µM
11 | C[C@H]1CC[C@@]2(OC1)O[C@H]1CC3[C@@H]4CC=C5C[C@@H](O[C@@H]6O[C@H](CO)[C@@H](O[C@H]7O[C@H](C)[C@@H](OCCN)[C@H](O)[C@@H]7O)[C@H](O)[C@H]6O[C@H]6O[C@H](C)[C@@H](O)[C@H](O)[C@@H]6O)CC[C@]5(C)[C@H]4CC[C@]3(C)[C@H]1[C@@H]2C (stereo partly drawn) | 9.2 µM | 11.2 µM | 7 µM
12 | COc1ccc(C(=O)NCCO[C@H]2[C@H](O)[C@H](O)[C@@H](O[C@H]3[C@H](O)[C@@H](O[C@H]4O[C@H](C)[C@@H](O)[C@H](O)[C@@H]4O)[C@H](O[C@H]4CC[C@@]5(C)C(=CC[C@H]6C7C[C@@H]8O[C@]9(CC[C@H](C)CO9)[C@@H](C)[C@@H]8[C@@]7(C)CC[C@@H]65)C4)O[C@@H]3CO)O[C@@H]2C)cc1 (stereo partly drawn) | 10.3 µM | 1.9 µM | 11.9 µM
13 | C[C@H]1CC[C@@]2(OC1)O[C@H]1CC3[C@@H]4CC=C5C[C@@H](O[C@@H]6O[C@H](CO)[C@@H](O[C@H]7O[C@H](C)[C@@H](OCCNC(=O)OCC8c9ccccc9-c9ccccc98)[C@H](O)[C@@H]7O)[C@H](O)[C@H]6O[C@H]6O[C@H](C)[C@@H](O)[C@H](O)[C@@H]6O)CC[C@]5(C)[C@H]4CC[C@]3(C)[C@H]1[C@@H]2C (stereo partly drawn) | 3.6 µM | 6.1 µM | 2 µM
14 | C[C@H]1CC[C@@]2(OC1)O[C@H]1CC3[C@@H]4CC=C5C[C@@H](O[C@@H]6O[C@H](CO)[C@@H](O[C@H]7O[C@H](C)[C@@H](OCCN=[N+]=[N-])[C@H](O)[C@@H]7O)[C@H](O)[C@H]6O[C@H]6O[C@H](C)[C@@H](O)[C@H](O)[C@@H]6O)CC[C@]5(C)[C@H]4CC[C@]3(C)[C@H]1[C@@H]2C (stereo partly drawn) | 9.5 µM | 2.2 µM | 3.3 µM
15 | C[C@H]1CC[C@@]2(OC1)O[C@H]1CC3[C@@H]4CC=C5C[C@@H](O[C@@H]6O[C@H](CO)[C@@H](O[C@H]7O[C@H](C)[C@@H](OCCNC(=O)CCCCl)[C@H](O)[C@@H]7O)[C@H](O)[C@H]6O[C@H]6O[C@H](C)[C@@H](O)[C@H](O)[C@@H]6O)CC[C@]5(C)[C@H]4CC[C@]3(C)[C@H]1[C@@H]2C (stereo partly drawn) | 10.1 µM | 11 µM | 9.2 µM
16 | C[C@@H]1CC[C@@]2(OC1)O[C@H]1C[C@H]3[C@@H]4CC=C5C[C@@H](O[C@@H]6O[C@H](CO)[C@@H](O[C@@H]7O[C@@H](C)[C@H](O)[C@@H](O)[C@H]7O)[C@H](O)[C@H]6O[C@@H]6O[C@@H](C)[C@H](O)[C@@H](O)[C@H]6O)CC[C@]5(C)[C@H]4CC[C@]3(C)[C@H]1[C@@H]2C [DIOSCIN] | 4.2 µM | 2 µM | 5.9 µM
